ChEMBL document CHEMBL5608200, “Design, synthesis, and evaluation of antitumor activity of 2-arylmethoxy-4-(2-fluoromethyl-biphenyl-3-ylmethoxy) benzylamine derivatives as PD-1/PD-l1 inhibitors” (Eur J Med Chem, 2024)
Activity calls are given as the source filed them. The rule behind the calls is not given here.

Assays:
MC-38 [1] = assay: Antiproliferative activity against mouse MC38 cells expressing hPD-L1 incubated for 48 hrs by CCK8 assay; conditions: MC-38, 48 h
HCC827 [2] = assay: Induction of T-cell mediated apoptosis in human HCC827 cells cocultured with PMA-stimulated Jurkat T cells assessed as mortality rate at 4 uM incubated for 48 hrs by CCK-8 assay; format: functional
HCC827 [3] = assay: Induction of T-cell mediated apoptosis in human HCC827 cells cocultured with PMA-stimulated Jurkat T cells assessed as mortality rate at 8 uM incubated for 48 hrs by CCK-8 assay; format: functional
HCC827 [4] = assay: Induction of T-cell mediated apoptosis in human HCC827 cells cocultured with PMA-stimulated Jurkat T cells assessed as mortality rate at 16 uM incubated for 48 hrs by CCK-8 assay; format: functional
HCC827 [5] = assay: Induction of T-cell mediated apoptosis in human HCC827 cells cocultured with PMA-stimulated Jurkat T cells assessed as mortality rate at 32 uM incubated for 48 hrs by CCK-8 assay; format: functional
MDA-MB-231 [6] = assay: Induction of T-cell mediated apoptosis in human MDA-MB-231 cells cocultured with PMA-stimulated Jurkat T cells assessed as mortality rate at 16 uM incubated for 48 hrs by CCK-8 assay; format: functional
MDA-MB-231 [7] = assay: Induction of T-cell mediated apoptosis in human MDA-MB-231 cells cocultured with PMA-stimulated Jurkat T cells assessed as mortality rate at 32 uM incubated for 48 hrs by CCK-8 assay; format: functional
HCC827 [8] = assay: Cytotoxicity against human HCC827 cells at 1 to 32 uM incubated for 48 hrs by CCK-8 assay; format: functional, cell-based; conditions: dose 1-32 µM
MDA-MB-231 [9] = assay: Cytotoxicity against human MDA-MB-231 cells at 1 to 32 uM incubated for 48 hrs by CCK-8 assay; format: functional, cell-based; conditions: dose 1-32 µM
A549 = assay: Cytotoxicity against human A549 cells at 1 to 32 uM incubated for 48 hrs by CCK-8 assay; format: functional, cell-based; conditions: dose 1-32 µM
[10] = Cmax in Sprague-Dawley rat at 10 mg/kg, iv measured upto 48 hrs by LC-MS/MS analysis; format: ADME, organism-based; conditions: in vivo
[11] = Half-life in Sprague-Dawley rat at 10 mg/kg, iv measured upto 48 hrs by LC-MS/MS analysis; format: ADME, organism-based; conditions: in vivo
[12] = Apparent volume of distribution in Sprague-Dawley rat at 10 mg/kg, iv measured upto 48 hrs by LC-MS/MS analysis; format: ADME, organism-based; conditions: in vivo
[13] = Clearance in Sprague-Dawley rat at 10 mg/kg, iv measured upto 48 hrs by LC-MS/MS analysis; format: ADME, organism-based; conditions: in vivo
[14] = AUC(0 to t) in Sprague-Dawley rat at 50 mg/kg, IG measured upto 48 hrs by LC-MS/MS analysis; format: ADME, organism-based; conditions: in vivo, po
[15] = AUC(0 to infinity) in Sprague-Dawley rat at 50 mg/kg, IG measured upto 48 hrs by LC-MS/MS analysis; format: ADME, organism-based; conditions: in vivo, po
[16] = Cmax in Sprague-Dawley rat at 50 mg/kg, IG measured upto 48 hrs by LC-MS/MS analysis; format: ADME, organism-based; conditions: in vivo, po
[17] = Half-life in Sprague-Dawley rat at 50 mg/kg, IG measured upto 48 hrs by LC-MS/MS analysis; format: ADME, organism-based; conditions: in vivo, po
[18] = Apparent volume of distribution in Sprague-Dawley rat at 50 mg/kg, IG measured upto 48 hrs by LC-MS/MS analysis; format: ADME, organism-based; conditions: in vivo, po
[19] = Clearance in Sprague-Dawley rat at 50 mg/kg, IG measured upto 48 hrs by LC-MS/MS analysis; format: ADME, organism-based; conditions: in vivo, po
[20] = Oral bioavilability in Sprague-Dawley rat at 50 mg/kg measured upto 48 hrs by LC-MS/MS analysis; format: ADME, organism-based; conditions: in vivo
MC-38 [21] = assay: Antitumor activity against mouse MC38 cells expressing hPD-L1 implanted in PD-1/PD-L1 humanized C57BL/6 mouse assessed as tumor growth inhibition at 50 mg/kg, IG; format: functional; conditions: MC-38, po, read-out: TGI
MC-38 [22] = assay: Antitumor activity against mouse MC38 cells expressing hPD-L1 implanted in PD-1/PD-L1 humanized C57BL/6 mouse assessed as tumor growth inhibition at 50 mg/kg, IG QD administered for 15 days and measured every day by caliper method; format: functional; conditions: MC-38, po, 360 h, time 15 day, read-out: TGI
[23] = Toxicity in PD-1/PD-L1 humanized C57BL/6 mouse implanted with mouse MC38 cells expressing hPD-L1 assessed as animal death at 50 mg/kg, IG QD administered for 15 days; format: organism-based, MC-38; conditions: in vivo, po, 360 h, time 15 day
MC-38 [24] = assay: Antitumor activity against mouse MC38 cells expressing hPD-L1 implanted in PD-1/PD-L1 humanized C57BL/6 mouse assessed as increase in proportion of CD3+/CD8+ T cells at 50 mg/kg, IG QD administered for 15 days by flow cytometry analysis; format: functional, organism-based; conditions: time 15.0 day
MC-38 [25] = assay: Antitumor activity against mouse MC38 cells expressing hPD-L1 implanted in PD-1/PD-L1 humanized C57BL/6 mouse assessed as upregulation of CXCL9 mRNA expression at 50 mg/kg, IG QD administered for 15 days by RT-PCR analysis; format: functional, organism-based; conditions: time 15.0 day
MC-38 [26] = assay: Antitumor activity against mouse MC38 cells expressing hPD-L1 implanted in PD-1/PD-L1 humanized C57BL/6 mouse assessed as upregulation of CXCL10 mRNA expression at 50 mg/kg, IG QD administered for 15 days by RT-PCR analysis; format: functional, organism-based; conditions: time 15.0 day
MC-38 [27] = assay: Antitumor activity against mouse MC38 cells expressing hPD-L1 implanted in PD-1/PD-L1 humanized C57BL/6 mouse assessed as downregulation of PD-L1 mRNA expression at 50 mg/kg, IG QD administered for 15 days by RT-PCR analysis; format: functional, organism-based; conditions: time 15.0 day
MC-38 [28] = assay: Antitumor activity against mouse MC38 cells expressing hPD-L1 implanted in PD-1/PD-L1 humanized C57BL/6 mouse assessed as upregulation of granzyme B expression at 50 mg/kg, IG QD administered for 15 days by immunohistochemistry analysis; format: functional, organism-based; conditions: time 15.0 day
MC-38 [29] = assay: Antitumor activity against mouse MC38 cells expressing hPD-L1 implanted in PD-1/PD-L1 humanized C57BL/6 mouse assessed as upregulation of perforin expression at 50 mg/kg, IG QD administered for 15 days by immunohistochemistry analysis; format: functional, organism-based; conditions: time 15.0 day
[30] = Toxicity in PD-1/PD-L1 humanized C57BL/6 mouse implanted with mouse MC38 cells expressing hPD-L1 assessed as change in heart morphology at 50 mg/kg, IG QD administered for 15 days by H and E staining based inverted fluorescent microscopic assay; format: organism-based, MC-38; conditions: in vivo, po, 360 h, time 15 day
[31] = Toxicity in PD-1/PD-L1 humanized C57BL/6 mouse implanted with mouse MC38 cells expressing hPD-L1 assessed as change in lung morphology at 50 mg/kg, IG QD administered for 15 days by H and E staining based inverted fluorescent microscopic assay; format: organism-based, MC-38; conditions: in vivo, po, 360 h, time 15 day
[32] = Toxicity in PD-1/PD-L1 humanized C57BL/6 mouse implanted with mouse MC38 cells expressing hPD-L1 assessed as change in kidney morphology at 50 mg/kg, IG QD administered for 15 days by H and E staining based inverted fluorescent microscopic assay; format: organism-based, MC-38; conditions: in vivo, po, 360 h, time 15 day
[33] = Toxicity in PD-1/PD-L1 humanized C57BL/6 mouse implanted with mouse MC38 cells expressing hPD-L1 assessed as nephrotoxicity at 50 mg/kg, IG QD administered for 15 days; format: organism-based, MC-38; conditions: in vivo, po, 360 h, time 15 day

Q: Which results are given for `N#Cc1cncc(COc2cc(OCc3cccc(-c4ccc5c(c4)OCCO5)c3C(F)F)ccc2CNCCO)c1`?
A: IC50 (MC-38 [1]): > 8 µM; Activity (HCC827 [2]): 40.4%; Activity (HCC827 [3]): 51.7%; Activity (HCC827 [4]): 59.6%; Activity (HCC827 [5]): 71.2%; Activity (MDA-MB-231 [6]): 57.1%; Activity (MDA-MB-231 [7]): 64%; Activity (HCC827 [8]): inactive; Activity (MDA-MB-231 [9]): inactive; Activity (A549): inactive; Cmax [10]: 4560 ng/mL; t1/2 [11]: 2.47 h; Vz [12]: 10.1 L/kg; CL [13]: 12 mL/min/kg; AUC(0-t) at 48 h [14]: 41800 ng·h/mL; AUC(0-inf) [15]: 42000 ng·h/mL; Cmax [16]: 13500 ng/mL; t1/2 [17]: 5.52 h; Vz [18]: 31.76 L/kg; CL [19]: 19.8 mL/min/kg; bioavailability [20]: 65.3%; inhibition in vivo at 50 mg/kg (MC-38 [21]): 62.4%; inhibition in vivo at 50 mg/kg (MC-38 [22]): 57.3%; Activity [23]: Non-Toxic; Activity (MC-38 [24]): Active; Activity (MC-38 [25]): Active; Activity (MC-38 [26]): Active; Activity (MC-38 [27]): Active; Activity (MC-38 [28]): Active; Activity (MC-38 [29]): Active; Activity [30]: Non-Toxic; Activity [31]: Non-Toxic; Activity [32]: Non-Toxic; Activity [33]: Non-Toxic
